What was measured:
[1] = biological target: T1, HilD (Salmonella typhimurium, UniProt E1WAC0); assay: Whole-cell HilD activity assay (PhilA-sfGFP activation); assay type: cell-based, S. Typhimurium; conditions: for activity in PhilA activation assay, in words: CDCA: highest tested concentration 100 μM
T1 construct: endogenous in cells; host or cells: S. Typhimurium SL1344 strain PhilA-sfGFP
Method: A whole-cell reporter gene assay was used to quantify HilD transcriptional activity. Strain PhilA-sfGFP and the isogenic ΔhilD PhilA-sfGFP were used for this purpose. Cultures were performed in 1 ml of LB supplemented with 0.3 M NaCl. Compounds at different concentrations or 1% (v/v) DMSO were added to the corresponding tubes. Cultures were incubated at 37°C and 180 rpm for 5 hours. Cells were pelleted, resuspended in 100 μl of PBS, and then transferred into a 96-well black clear-bottom plate (Thermo Fisher Scientific, USA). Fluorescence intensity was measured with a Tecan Spark microplate reader with an excitation wavelength of 485 nm and an emission wavelength of 510 nm. Dose-response curves and IC50 values were calculated using CDD Vault.

[2] = tested on: HeLa cells; assay: Cytotoxicity, CellTox Green Cytotoxicity Assay, HeLa; assay type: cell-based; conditions: exposure time 18 h
Method: In vitro toxicity of compound C26 was assessed in HeLa cells (ATCC CCL-2) using the ApoTox-Glo Triplex Assay and in macrophages RAW 264.7-LgBiT using the CellTox Green Cytotoxicity Assay (Promega, USA) according to the manufacturer’s instructions. The screening of in vitro toxicity of the compound analogs was performed with the CellTox Green Cytotoxicity Assay (Promega, USA) according to the manufacturer’s instructions. Cells (10^4 cells per well) were seeded into a 96-well plate and incubated for 24 hours at 37°C, 5% (v/v) CO2. Cells were then treated with the compound at different concentrations or 1% (v/v) DMSO in Dulbecco’s modified Eagle’s medium (DMEM) without phenol red at the desired exposure time. Fluorescence intensity was measured with a TECAN Spark microplate reader. Cytotoxicity [relative fluorescence units (RFU)] and viability (RFU) values were plotted to calculate the TC50 using GraphPad Prism 10.1.1.
Compound concentration (µM) […]
in vitro cytotoxicity of C26 and analogs. Cytotoxicity assessed with CellTox™ Green Cytotoxicity Assay with an exposure time of 18 h. N = 3 biological replicates. Data were plotted and TC50 values were generated with GraphPad Prism 10.1.1.
(1 picture or pasted object on this page, not shown here)

[3] = biological target: T2, HilD (Salmonella typhimurium, UniProt P0CL08); assay: nanoDSF thermal stability, HilD; assay type: binding, S. Typhimurium
T2 construct: His6-SUMO (N, cleaved yes); made in house; host or cells: E. coli C41(DE3)
Method: Thermal stability of proteins was determined using nanoDSF, with runs performed on a Prometheus NT.48 (NanoTemper Technologies). A twofold serial dilution series of C26 was prepared in DMSO. C26 was added to HilD or HilC (5 μM) in SEC buffer, giving a final DMSO concentration of 1% (v/v). Samples were incubated for >20 min at r.t. and centrifuged for 2 min prior to loading of standard capillaries (no. PR-C002). Samples were heated from 20° to 80°C with a temperature gradient of 0.5°C min^−1. Melting temperatures were calculated from changes in the fluorescence ratio (350/330 nm), using PR.Stability Analysis v1.0.3 and a temperature range of 40° to 70°C for curve fitting. Data analysis was performed using Prism 8.4 (GraphPad). The change in HilD melting temperature, Tm, was fitted as a function of ligand concentration, using Eqs. 1 and 2 to yield apparent affinity (Kd,app) values Tm{[L]0}=Tm,lower+(Tm,upper−Tm,lower)*(1−α{[L]0}) (1) α{[L]0}=[P]t−Kd−[L]t+{[P]t+[L]t+Kd,app}^2−{4[P]t[L]t}/2[P]t (2) where [P]t and [L]t are the total protein and ligand concentrations, respectively.

[4] = biological target: HilD-HilE heterodimer (Salmonella typhimurium, UniProt P0CL08); assay: MST dimerization assay HilD-HilE; assay type: binding, S. Typhimurium; conditions: 100 μM compound
Method: MST measurements for the binding of HilD to HilE were performed as previously described ([39]). In summary, enhanced yellow fluorescent protein (EYFP)-HilD (100 nM) was incubated with 100 μM either oleic acid or C26 [with a final concentration of 1% (v/v) DMSO] for 10 min at r.t. (22° to 25°C) and subsequently mixed 1:1 with varying concentrations of HilE. Samples were incubated together for 10 min at r.t., centrifuged for 5 min, and loaded to standard capillaries (NanoTemper Technologies GmbH, no. MO-K022). MST runs were performed at 25°C on a NanoTemper Monolith NT.115, with an excitation power of 60% and medium MST power. Data were analyzed using the MO.Affinity Analysis v2.3 software, and affinity constants were calculated using the Kd model.

[5] = biological target: T3, HilD dimer (Salmonella typhimurium, UniProt P0CL08); assay: BS3 cross-linking of HilD; assay type: biochemical, S. Typhimurium; conditions: oleic acid 50 and 100 μM; C26 up to 200 μM
T3 construct: His6-SUMO (N, cleaved yes); made in house; host or cells: E. coli C41(DE3)
Method: BS^3 cross-linking of HilD was performed as previously described ([39]). In summary, HilD (10 μM) was first incubated with C26 or oleic acid in SEC buffer for 20 min at r.t., with a final DMSO concentration of 1% (v/v). HilD was then cross-linked by incubation with 0.2 mM BS^3 (Thermo Fisher Scientific, Pierce, A39266) at r.t. for 1 hour, before the reaction was quenched by the addition of 50 mM Tris (pH 7.5). Samples were analyzed using SDS-PAGE and visualized by silver staining.

[6] = biological target: the molecule itself; assay: SEC-MALS
[7] = biological target: T4, HilE (Salmonella enterica subsp. enterica …); assay: MST; 1% DMSO
T4 chain: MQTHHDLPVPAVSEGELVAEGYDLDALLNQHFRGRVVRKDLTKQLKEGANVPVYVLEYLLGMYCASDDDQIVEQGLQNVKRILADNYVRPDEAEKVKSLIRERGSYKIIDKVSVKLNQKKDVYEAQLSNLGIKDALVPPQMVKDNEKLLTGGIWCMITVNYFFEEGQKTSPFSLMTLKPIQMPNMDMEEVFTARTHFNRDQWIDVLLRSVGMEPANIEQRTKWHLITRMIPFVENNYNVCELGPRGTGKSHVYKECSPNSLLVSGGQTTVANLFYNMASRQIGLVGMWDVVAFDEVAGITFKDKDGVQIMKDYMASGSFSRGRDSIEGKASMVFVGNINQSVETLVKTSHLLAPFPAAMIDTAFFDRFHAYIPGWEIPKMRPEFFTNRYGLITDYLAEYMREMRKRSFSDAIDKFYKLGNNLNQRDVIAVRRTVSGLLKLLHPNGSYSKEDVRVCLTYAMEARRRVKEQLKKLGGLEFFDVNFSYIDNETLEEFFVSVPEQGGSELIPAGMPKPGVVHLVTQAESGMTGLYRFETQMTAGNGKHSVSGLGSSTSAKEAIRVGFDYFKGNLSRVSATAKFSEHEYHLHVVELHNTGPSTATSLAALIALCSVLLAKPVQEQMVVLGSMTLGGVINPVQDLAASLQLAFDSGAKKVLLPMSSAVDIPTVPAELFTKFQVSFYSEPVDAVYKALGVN

[8] = biological target: T4, HilE; assay: MST; 100 uM C26

CCCCCCCCCCCCC/C=C\C(=O)O [c2-HDA, cis-2-hexadecenoic acid, reference compound]
IC50 [1]: 0.21 µM

CCCCCC/C=C\CCCCCCCC(=O)O [palmitoleic acid, reference compound]
IC50 [1]: 25.8 µM

CN(CC(=O)NCc1ccc2c(c1)OC(F)(F)O2)Cc1ccc(Br)s1 [SW-C182, 2-{[(5-Bromothiophen-2-yl)methyl](methyl)amino}-N-[(2,2-difluorobenzo[d][1,3]dioxol-5-yl)methyl]acetamide]
TC50 cytotoxicity [2]: 49.9 µM
Kd [3]: 2.7 µM
IC50 [1]: 4.9 µM

CN(CC(=O)NCc1ccc2c(c1)OCO2)Cc1ccc(Br)o1 [SW-C210, N-(benzo[d][1,3]dioxol-5-ylmethyl)-2-{[(5-bromofuran-2-yl)methyl](methyl)amino}acetamide]
TC50 cytotoxicity [2]: > 100 µM
Kd [3]: > 100 µM
IC50 [1]: > 100 µM

CN(CC(=O)NCc1ccc(Cl)cc1)Cc1ccc(Br)s1 [SW-C202, 2-{[(5-Bromothiophen-2-yl)methyl](methyl)amino}-N-(4-chlorobenzyl)acetamide]
TC50 cytotoxicity [2]: 87.3 µM
Kd [3]: 4.1 µM
IC50 [1]: 3.9 µM

CN(CC(=O)NCc1ccc2c(c1)OCO2)Cc1ccccc1Br [SW-C165, N-(benzo[d][1,3]dioxol-5-ylmethyl)-2-[(2-bromobenzyl)(methyl)amino]acetamide]
TC50 cytotoxicity [2]: > 100 µM
Kd [3]: > 100 µM
IC50 [1]: > 100 µM

CN(CC(=O)NCc1ccccc1)Cc1ccc(Br)s1 [SW-C103]
TC50 cytotoxicity [2]: > 100 µM
Kd [3]: 28.8 µM
IC50 [1]: 34.4 µM

C[C@H](CCC(=O)O)[C@H]1CC[C@H]2[C@@H]3[C@H](O)C[C@@H]4C[C@H](O)CC[C@]4(C)[C@H]3CC[C@]12C [CDCA, chenodeoxycholic acid, reference compound]
activity in PhilA activation assay, in words [1]: No activity

CCCCCCCC/C=C\CCCCCCCC(=O)O [oleic acid, reference compound]
formation of HilD-HilE heterodimers [4]: disrupted the binding of HilE to HilD
IC50 [1]: 25.1 µM
levels of cross-linked HilD dimer [5]: Decreased levels of the cross-linked HilD dimer

CN(CC(=O)NCc1cc(Cl)cc(Cl)c1)Cc1ccc(Br)s1 [SW-C250, 2-{[(5-Bromothiophen-2-yl)methyl](methyl)amino}-N-(3,5-dichlorobenzyl)acetamide]
TC50 cytotoxicity [2]: > 100 µM
Kd [3]: 1.8 µM
IC50 [1]: 3.2 µM

CN(CC(=O)NCc1ccc2c(c1)OCO2)Cc1ccc(Br)cc1 [SW-C116]
TC50 cytotoxicity [2]: > 100 µM
Kd [3]: > 100 µM
IC50 [1]: 68.3 µM

CN(CC(=O)NCc1ccc(O)c(O)c1)Cc1ccc(Br)s1 [SW-C170, 2-{[(5-Bromothiophen-2-yl)methyl](methyl)amino}-N-(3,4-dihydroxybenzyl)acetamide]
TC50 cytotoxicity [2]: > 100 µM
Kd [3]: > 100 µM
IC50 [1]: > 100 µM
activity in PhilA activation assay, in words [1]: complete loss of activity

Cc1ccc(CN(C)CC(=O)NCc2ccc3c(c2)OCO3)s1 [SW-C153]
TC50 cytotoxicity [2]: > 100 µM
Kd [3]: 8.8 µM
IC50 [1]: 63.1 µM

B1: HilD (natural protein)
chain: MENVTFVSNSHQRPAADNLQKLKSLLTNTRQQIKSQTQQVTIKNLYVSSFTLVCFRSGKLTISNNHDTIYCDEPGMLVLKKEQVVNVTLEEVNGHMDFDILEIPTQRLGALYALIPNEQQTKMAVPTEKAQKIFYTPDFPARREVFEHLKTAFSCTKDTSKGCSNCNNKSCIENEELIPYFLLFLLTAFLRLPESYEIILSSAQITLKERVYNIISSSPSRQWKLTDVADHIFMSTSTLKRKLAEEGTSFSDIYLSARMNQAAKLLRIGNHNVNAVALKCGYDSTSYFIQCFKKYFKTTPSTFIKMANH
notes: also called HilDWT; recombinant HilD; source: E. coli C41(DE3), purified (Ni-NTA, SUMO protease cleavage, second Ni-NTA, SEC)
stoichiometry N [6]: 2
Kd [7]: 1.7 µM
Kd [8]: 1.71 µM
